Experimental data published in PMC3254644, “DNA Display Selection of Peptide Ligands for a Full-Length Human G Protein-Coupled Receptor on CHO-K1 Cells” (PLoS ONE, 2012).
pIC50, pKd: −log10 of the molar value. Residues, ends and D or L forms follow the SMILES beside them.

Columns and labels:
[1] = target: T1, human angiotensin II type 1 receptor (hAT1R) (Homo sapiens, UniProt P30556); assay: Competitive binding assay at various concentrations of synthetic peptides (IC50); conditions: streptavidin-fused Ang II on hAT1R/CHO-K1 cells competed by 0–200 nM synthetic peptide; 10 min room temperature; quantitative Western blot (Fig. S1)
T1 construct: we applied the DNA display system to in vitro selection of peptide ligands for a full-length GPCR expressed on whole cells; polyhistidine (C); expressed in transfected cells
T1 sequence (P30556 1-359): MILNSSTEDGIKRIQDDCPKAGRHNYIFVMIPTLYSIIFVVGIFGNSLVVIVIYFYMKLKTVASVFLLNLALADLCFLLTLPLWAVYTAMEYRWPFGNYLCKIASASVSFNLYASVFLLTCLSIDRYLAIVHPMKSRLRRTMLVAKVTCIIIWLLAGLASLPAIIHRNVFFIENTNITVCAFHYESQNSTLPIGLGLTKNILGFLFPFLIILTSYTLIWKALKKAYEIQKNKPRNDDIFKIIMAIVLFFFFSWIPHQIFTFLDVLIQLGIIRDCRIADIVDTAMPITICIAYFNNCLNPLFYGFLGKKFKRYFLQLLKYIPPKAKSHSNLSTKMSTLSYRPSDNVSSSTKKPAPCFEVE
Procedure: Streptavidin-fused peptides for selected clones were prepared separately by using the PURE system classic II kit with 20 nM DNA for 1 h at 37°C. The streptavidin-fused peptides were incubated with the hAT1R-expressing cells for 10 min at room temperature in the presence 0–200 nM synthetic peptides (see next section) as competitors, and washed as described in the previous section. Then the binding proteins were recovered using 0.5 ml of lysis buffer (1% protease inhibitor cocktail and 4 M urea) on ice for 30 min. The cell lysates were analyzed by 15% SDS-PAGE and Western blot analysis using anti-T7·tag antibody (Novagen) followed by HRP-conjugated secondary antibody (Chemicon). The streptavidin-fused peptides with T7·tag were quantitatively detected by an ECL chemiluminescence kit and Hyperfilm ECL (GE Healthcare).
Supplementary file pone.0030084.s001.pdf: Figure S1 Competition curves for selected peptides. […] For details, see MATERIALS AND METHODS. (PDF) Click here for additional data file.

[2] = target: human angiotensin II (Ang II) type-1 receptor (hAT1R) with C-terminal c-myc tag, on CHO-K1 cells (human) (UniProt P30556); assay: radioligand binding; [125I]Sar1,Ile8-Ang II, 0.05 nM to 20 nM, on hAT1R/CHO-K1 cells in 48-well plates; Ham's F12 with 1% BSA; 30 min at room temperature; Scatchard analysis; data not shown
[3] = system: rat AT1R; set-up: method as in PMID 12969745; conditions: cited from earlier work

Compound	pIC50 [1]	further results
CC[C@H](C)[C@H](NC(=O)[C@@H]1CCCN1C(=O)[C@H](Cc1c[nH]cn1)NC(=O)[C@@H](NC(=O)[C@H](Cc1ccc(O)cc1)NC(=O)[C@H](CC(C)C)NC(=O)[C@H](CCCNC(=N)N)NC(=O)CN)[C@@H](C)CC)C(=O)O [LII3-2] (H-GRLYIHPI-OH)	8.07	–
CC[C@H](C)[C@H](NC(=O)[C@@H]1CCCN1C(=O)[C@H](Cc1c[nH]cn1)NC(=O)[C@@H](NC(=O)[C@H](Cc1ccc(O)cc1)NC(=O)[C@H](CC(C)C)NC(=O)[C@H](CCCCN)NC(=O)[C@@H](N)CCCNC(=N)N)[C@@H](C)CC)C(=O)O [LII3-5] (H-RKLYIHPI-OH)	8.12	–
[125I]Sar1,Ile8-Ang II (peptide)	–	pKd [2]: 8.09
[Lys^2]Ang II (DKVYIHPF; Angiotensin-2; UniProt P01019 25-32, looked up, variant R2K) [Ang II analogue with Lys at position 2, from the literature]	–	affinity for rat AT1R relative to wild-type Ang II [3]: lower than that of wild-type Ang II
CC(C)C[C@H](NC(=O)[C@H](CCCNC(=N)N)NC(=O)[C@@H](N)Cc1c[nH]c2ccccc12)C(=O)N[C@@H](Cc1ccc(O)cc1)C(=O)N[C@@H](CC(C)C)C(=O)N[C@@H](Cc1c[nH]cn1)C(=O)N1CCC[C@H]1C(=O)N[C@@H](Cc1ccccc1)C(=O)O [LI5-2] (H-WRLYLHPF-OH)	7.12	–
CC[C@H](C)[C@H](NC(=O)[C@H](CCCNC(=N)N)NC(=O)[C@@H](N)CC(N)=O)C(=O)N[C@@H](Cc1ccc(O)cc1)C(=O)N[C@H](C(=O)N[C@@H](Cc1c[nH]cn1)C(=O)N1CCC[C@H]1C(=O)N[C@@H](Cc1ccccc1)C(=O)O)[C@@H](C)CC [LI5-1] (H-NRIYIHPF-OH)	7.80	–
CC[C@H](C)[C@H](NC(=O)[C@H](Cc1ccc(O)cc1)NC(=O)[C@H](Cc1ccccc1)NC(=O)[C@H](CCCNC(=N)N)NC(=O)[C@@H](N)CCC(N)=O)C(=O)N[C@@H](Cc1c[nH]cn1)C(=O)N1CCC[C@H]1C(=O)N[C@@H](CC(C)C)C(=O)O [LII3-4] (H-QRFYIHPL-OH)	7.32	–
